Experiments:
[1] = tested on: epiderimoid carcinoma of the nasopharynx (KB); assay: in vitro cytotoxicity assay, KB; format: cell-based, human; details: drug exposure 3 days
Protocol: (§1) Biological Assay. The in vitro cytotoxicity assay was carried out according to procedures described in Rubinstein et al. (P. Ferguson et al., Cancer Res. 1988, 48, 5956-5964). […] The human tumor cell line panel consisted of epiderimoid carcinoma of the nasopharynx (KB), lung carcinoma (A-549), ileocecal carcinoma (HCT-8), renal cancer (CAKI-1), breast cancer (MCF-7), melanoma cancer (SKMEL-2), and ovarian cancer (1A9). The drug resistant cell line panel consisted of three KB-derivatives, -7d, -CPT, and -VCR. The properties of these cells are described elsewhere (P. Ferguson et al., Cancer Res. 1988, 48, 5956-5964; D. Beidler et al., Cancer Res. 1996, 56, 345-353). […] They were a generous gift of Dr. P. Giannakakou (P. Giannakakou et al., J. Biol. Chem. 1997, 27, 17118-17125). Cells were cultured at 37° C. in RPMI-1640 with 100 ug/mL kanamycin and 10% (v/v) fetal bovine serum in a humidified atmosphere containing 5% CO2. Initial seeding densities varied among the cell lines to ensure a final absorbance of 1-2.5 A562 units. Drug exposure was for 3 days, and the ED50 value, the drug concentration that reduced the absorbance by 50%, was interpolated from dose-response data.

[2] = tested on: lung carcinoma (A-549); assay: in vitro cytotoxicity assay, A549; details: read-out: Cytotoxicity (ED50) A549; A549; drug exposure 3 days; NA = not active
Protocol: as §1

[3] = tested on: ileocecal carcinoma (HCT-8); assay: in vitro cytotoxicity assay, HCT-8; details: read-out: Cytotoxicity (ED50) HCT-8; HCT-8; drug exposure 3 days; NA = not active
Protocol: as §1

[4] = tested on: renal cancer (CAKI-1); assay: in vitro cytotoxicity assay, CAKI-1; details: read-out: Cytotoxicity (ED50) CAKI-1; CAKI-1; drug exposure 3 days
Protocol: as §1

[5] = tested on: breast cancer (MCF-7); assay: in vitro cytotoxicity assay, MCF-7; details: read-out: Cytotoxicity (ED50) MCF-7; MCF-7; drug exposure 3 days
Protocol: as §1

[6] = tested on: melanoma cancer (SKMEL-2); assay: in vitro cytotoxicity assay, SK-MEL-2; details: read-out: Cytotoxicity (ED50) SK-MEL-2; SK-MEL-2; drug exposure 3 days; NA = not active
Protocol: as §1

[7] = tested on: ovarian cancer (1A9); assay: in vitro cytotoxicity assay, 1A9; details: read-out: Cytotoxicity (ED50) 1A9 (OVCAR); 1A9 (OVCAR); drug exposure 3 days
Protocol: as §1

[8] = tested on: KB-7d; assay: cytotoxicity in drug resistant cell line KB-7d; format: cell-based, human; details: KB-7d drug resistant KB derivative
Protocol: as §1
(§2) The newly synthesized taxoid-4′-O-demethyl epipodophyllotoxin conjugates were evaluated in house using standard cytotoxicity assays in human tumor (HTCL) and drug-resistant (DRCL) cell lines. Reference compounds were paclitaxel (1), cephalomannine (2), and epipodophyllotoxins [etoposide (5) and GL-331 (7), see FIG. 1]. The HTCL panel was comprised of KB, A549, HCT-8, CAKI-1, MCF-7, SK-MEL-2, and 1A9 cell lines. Two paclitaxel-resistant 1A9 sub-lines designated as PAX-10 and PAX-22 were also tested as part of the DRCL panel. Other resistant-cell lines were KB derivatives expressing various mechanisms or multi-drug resistance as described elsewhere (P. Ferguson et al., Cancer Res. 1988, 48, 5956-5964; D. Beidler et al., Cancer Res. 1996, 56, 345-353).

[9] = tested on: KB-VCR; assay: cytotoxicity in drug resistant cell line KB-VCR; format: cell-based, human; details: KB-VCR drug resistant KB derivative
Protocol: as §1, §2

[10] = tested on: KB-CPT; assay: cytotoxicity in drug resistant cell line KB-CPT; format: cell-based, human; details: KB-CPT drug resistant KB derivative
Protocol: as §1, §2

[11] = tested on: PAX-10; assay: cytotoxicity in paclitaxel-resistant 1A9 sub-line PAX-10; format: cell-based, human; details: PAX-10 paclitaxel-resistant 1A9 sub-line
Protocol: as §1, §2

[12] = tested on: PAX-22; assay: cytotoxicity in paclitaxel-resistant 1A9 sub-line PAX-22; format: cell-based, human; details: PAX-22 paclitaxel-resistant 1A9 sub-line
Protocol: as §1, §2

[13] = tested on: leukemia cell lines; assay: NCI human tumor cell lines, leukemia; format: cell-based; details: average over all cell lines of the tumor type; data provided by the NCI
[14] = tested on: Non-small cell lung cancer cell lines; assay: NCI human tumor cell lines, NSCL; format: cell-based; details: average over all cell lines of the tumor type; data provided by the NCI
[15] = tested on: Colon cell lines; assay: NCI human tumor cell lines, colon; format: cell-based; details: average over all cell lines of the tumor type; data provided by the NCI
[16] = tested on: Central nervous system cancer cell lines; assay: NCI human tumor cell lines, CNS; format: cell-based; details: average over all cell lines of the tumor type; data provided by the NCI
[17] = tested on: melanoma cell lines; assay: NCI human tumor cell lines, melanoma; format: cell-based; details: average over all cell lines of the tumor type; data provided by the NCI
[18] = tested on: ovarian cell lines; assay: NCI human tumor cell lines, ovarian; format: cell-based; details: average over all cell lines of the tumor type; data provided by the NCI
[19] = tested on: renal cell lines; assay: NCI human tumor cell lines, renal; format: cell-based; details: average over all cell lines of the tumor type; data provided by the NCI
[20] = tested on: prostate cell lines; assay: NCI human tumor cell lines, prostate; format: cell-based; details: average over all cell lines of the tumor type; data provided by the NCI
[21] = tested on: breast cell lines; assay: NCI human tumor cell lines, breast; format: cell-based; details: average over all cell lines of the tumor type; data provided by the NCI
[22] = tested on: Topoisomerase II; assay: Topoisomerase II activity assay (inhibition of topo II in vitro); format: biochemical; details: NA^1 not active at 50 uM, NA^2 not active at 100 uM
Text: (§3) Protein-Linked DNA Break and Topoisomerase 11 Activity Assays. The procedures were done according to detailed published methods (K. Bastow et al., Bioorg. Med. Chem. 1997, 5, 1481-1488).

[23] = tested on: Cellular protein-DNA complex formation; assay: Protein-linked DNA break assay (cellular protein-DNA complex formation); format: cell-based; details: for Cellular protein-DNA complex formation: Etoposide given as 100, NA^1 not active at 50 uM, NA^2 not active at 100 uM
Text: as §3

[24] = tested on: paclitaxel resistant cells; assay: cytotoxicity against paclitaxel resistant cells (overall); format: cell-based, human; details: compared with the unconjugated components, Table 3
Protocol: as §1, §2

[25] = tested on: approximately 60 human tumor cell lines; assay: NCI cytotoxicity evaluation in approximately 60 human tumor cell lines (overall); format: cell-based; details: especially leukemia, colon, and prostate cell lines
[26] = tested on: human tumor (HTCL) cell lines; assay: standard cytotoxicity assays in human tumor cell lines (HTCL panel, overall); details: summary of Table 2
Protocol: as §1
The newly synthesized taxoid-4′-O-demethyl epipodophyllotoxin conjugates were evaluated in house using standard cytotoxicity assays in human tumor (HTCL) and drug-resistant (DRCL) cell lines. […]

## COc1cc([C@@H]2c3cc4c(cc3[C@@H](N=Cc3ccc(C(=O)O[C@@H](C(=O)O[C@H]5C[C@@]6(O)[C@@H](OC(=O)c7ccccc7)[C@@H]7[C@]8(OC(C)=O)CO[C@@H]8C[C@H](O)[C@@]7(C)C(=O)[C@H](OC(C)=O)C(=C5C)C6(C)C)[C@@H](NC(=O)c5ccccc5)c5ccccc5)cc3)[C@H]3COC(=O)[C@H]23)OCO4)cc(OC)c1O [Compound 12]
[1]
  Cytotoxicity (ED50) KB: 3 nM
[2]
  EC50: 210 nM
[3]
  EC50: 540 nM
[4]
  EC50: > 250 nM
[5]
  EC50: 330 nM
[6]
  EC50: > 400 nM
[7]
  EC50: 30 nM
[8]
  Resistance Fold KB-7d: 1
[9]
  Resistance Fold KB-VCR: 17
[10]
  Resistance Fold KB-CPT: 1
[11]
  Resistance Fold PAX-10: 7
[12]
  Resistance Fold PAX-22: 17
[13]
  log GI50 leukemia: −7.60
[14]
  log GI50 NSCL: −6.58
[15]
  log GI50 Colon: −7.20
[16]
  log GI50 CNS: −6.93
[17]
  log GI50 melanoma: −6.29
[18]
  log GI50 ovarian: −6.55
[19]
  log GI50 renal: −6.13
[20]
  log GI50 prostate: −7.22
[21]
  log GI50 breast: −6.56
[22]
  Inhibition of Topo II IC100: 100 µM
[23]
  Cellular protein-DNA complex formation: 8 +/− 2%
  intracellular poisoning / stimulation of protein-DNA breaks in cells (in words): intracellular poisons
[24]
  activity against paclitaxel resistant cells (in words): enhanced activity against paclitaxel resistant cells
[25]
  inhibitory effects against NCI tumor cell lines (in words): strongest inhibitory effects against a variety of tumor cell lines

## COc1cc([C@@H]2c3cc4c(cc3[C@@H](Nc3ccc(N=Cc5ccc(C(=O)O[C@@H](C(=O)O[C@H]6C[C@@]7(O)[C@@H](OC(=O)c8ccccc8)[C@@H]8[C@]9(OC(C)=O)CO[C@@H]9C[C@H](O)[C@@]8(C)C(=O)[C@H](OC(C)=O)C(=C6C)C7(C)C)[C@@H](NC(=O)c6ccccc6)c6ccccc6)cc5)cc3)[C@H]3COC(=O)[C@H]23)OCO4)cc(OC)c1O [Compound 15]
[1]
  Cytotoxicity (ED50) KB: 230 nM
[2]
  EC50: 2800 nM
[3]
  EC50: > 100 nM
[4]
  EC50: > 4000 nM
[5]
  EC50: 1860 nM
[6]
  EC50: > 40000 nM
[7]
  EC50: 300 nM
[8]
  Resistance Fold KB-7d: 1
[9]
  Resistance Fold KB-VCR: 8
[10]
  Resistance Fold KB-CPT: 1
[11]
  Resistance Fold PAX-10: >17
[12]
  Resistance Fold PAX-22: 8
[13]
  log GI50 leukemia: −6.02
[14]
  log GI50 NSCL: −5.50
[15]
  log GI50 Colon: −5.12
[16]
  log GI50 CNS: −5.54
[17]
  log GI50 melanoma: −5.01
[18]
  log GI50 ovarian: −4.95
[20]
  log GI50 prostate: −5.06
[22]
  Inhibition of Topo II IC100: 100 µM
[23]
  Cellular protein-DNA complex formation: 25 +/− 11%
  intracellular poisoning / stimulation of protein-DNA breaks in cells (in words): intracellular poisons
[26]
  cytotoxicity in human tumor cell lines (in words): exhibited different cytotoxic activity from both precursors
[24]
  activity against paclitaxel resistant cells (in words): enhanced activity against paclitaxel resistant cells
